Laboratory results taken from the CombiSolv-Exp solvation set (Vermeire and Green 2021).

Assay: solvent given as SMILES

CCNc1nc(NC(C)CC)nc(OC)n1 (stereo not drawn)
Conditions	solvation free energy, 298 K [kcal/mol]
in O	-9.89

COc1cc(NS(=O)(=O)c2ccc(N)cc2)nc(OC)n1
Conditions	solvation free energy, 298 K [kcal/mol]
in O	-18.9

CC(C)CC(C)C
Conditions	solvation free energy, 298 K [kcal/mol]
in Brc1ccccc1	-3.81
in C1CCCCC1	-4.32
in C1CCOC1	-4.15
in C1COCCO1	-3.39
in C=CCCCC	-4.22
in C=CCCCCCC	-4.16
in C=CCCCCCCCC	-4.06
in C=CCCCCCCCCCCCCCC	-3.72
in CC1COC(=O)O1	-2.21
in CC#N	-2.78
in CC(=O)N(C)C	-2.97
in CC(=O)O	-3.06
in CC(=O)c1ccccc1	-3.18
in CC(C)=O	-3.45
in CC(C)CC(C)(C)C	-4.15
in CC(C)CCCC(C)CCCC(C)CCCCC(C)CCCC(C)CCCC(C)C	-3.68
in CC(C)CCO	-3.6
in CC(C)O	-3.45
in CC(C)OC(C)C	-4.18
in CCBr	-4.27
in CCC#N	-3.18
in CCC(C)=O	-3.66
in CCCC#N	-3.41
in CCCC(=O)OCC	-3.87
in CCCC(C)=O	-3.74
in CCCCC	-4.33
in CCCCCC	-4.35
in CCCCCC(C)=O	-3.75
in CCCCCCC	-4.22
in CCCCCCCC	-4.14
in CCCCCCCCC	-4.1
in CCCCCCCCCC	-4.06
in CCCCCCCCCCCC	-3.94
in CCCCCCCCCCCCCCCC	-3.85
in CCCCCCCCCCCCO	-3.49
in CCCCCCCCO	-3.57
in CCCCCCOC(C)=O	-3.87
in CCCCO	-3.5
in CCCCOC(C)=O	-3.81
in CCCCOCCCC	-4.13
in CCCO	-3.39
in CCN(CC)CC	-4.26
in CCO	-3.34
in CCOC(C)=O	-3.69
in CCOCC	-4.19
in CCOCCOCCOCC	-3.59
in CCOc1ccccc1	-3.64
in CN1CCCC1=O	-2.82
in CN(C)C=O	-2.82
in CN(C)P(=O)(N(C)C)N(C)C	-3.23
in CNC=O	-2.49
in CO	-2.99
in COC(C)=O	-3.51
in COCCO	-2.84
in COc1ccccc1	-3.57
in CS(C)=O	-2.03
in Cc1ccc(C)cc1	-4.07
in Cc1ccccc1	-4.07
in Cc1ccccn1	-3.66
in ClC(Cl)(Cl)Cl	-4.29
in ClC(Cl)Cl	-4.17
in ClCCCl	-3.63
in ClCCl	-3.96
in Clc1ccccc1	-4.04
in FC(F)(F)C(F)(F)C(F)(F)C(F)(F)C(F)(F)C(F)(F)C(F)(F)C(F)(F)F	-2.77
in FC(F)(F)C(F)(F)C(F)(F)C(F)(F)C(F)(F)C(F)(F)F	-2.85
in Fc1ccccc1	-4.04
in ICI	-2.14
in N#Cc1ccccc1	-3.27
in Nc1ccccc1	-2.55
in O	2.86
in O=C1CCCCC1	-3.56
in O=C1CCCO1	-2.36
in OCc1ccccc1	-2.76
in S=C=S	-4.19
in c1ccccc1	-4.03
in c1ccncc1	-3.4

C=CCCC=C
Conditions	solvation free energy, 298 K [kcal/mol]
in C=CCCCCCCCCCCCCCC	-3.36
in CCCCCCCCCCCCCCCC	-3.48
in CN1CCCC1=O	-3.23
in CS(C)=O	-2.74
in O	0.97

OCCO
Conditions	solvation free energy, 298 K [kcal/mol]
in O	-9.3

Clc1ccc(Br)cc1
Conditions	solvation free energy, 298 K [kcal/mol]
in CC(C)CO	-6.51
in CCCCOCCCC	-7.08
in COC(C)(C)C	-7.27
in O	-1.61

CCc1ccc(CC)cc1
Conditions	solvation free energy, 298 K [kcal/mol]
in CC(C)(C)O	-6.3

Clc1ccc(-c2cc(Cl)ccc2Cl)cc1
Conditions	solvation free energy, 298 K [kcal/mol]
in CCCCCCCCO	-10.8

COc1cc(C(C)=O)ccc1O
Conditions	solvation free energy, 298 K [kcal/mol]
in CCC(C)=O	-12.2
in CCCO	-11.8
in Cc1ccccc1	-10.8
in ClC=CCl	-12

C1CNC1
Conditions	solvation free energy, 298 K [kcal/mol]
in O	-5.56

Nc1cccc2ccccc12
Conditions	solvation free energy, 298 K [kcal/mol]
in CCCCCC	-8.87
in CCCCCCCC	-8.82
in O	-7.4

CCCOC(=O)c1ccccc1O
Conditions	solvation free energy, 298 K [kcal/mol]
in O	-3.66

CN(C)C
Conditions	solvation free energy, 298 K [kcal/mol]
in CC(C)=O	-2.56
in CCCCCC	-2.63
in CCCCCCC	-2.44
in CCCCO	-2.91
in CCCO	-3.49
in CCO	-3.64
in CN(C)C=O	-2.41
in ClC(Cl)(Cl)Cl	-2.89
in ClC(Cl)Cl	-3.9
in O	-3.2

CN(C)c1ccccc1
Conditions	solvation free energy, 298 K [kcal/mol]
in CCCCCCCCCCCCCCCC	-6.4
in O	-3.45

CCC(O)C(C)C (stereo not drawn)
Conditions	solvation free energy, 298 K [kcal/mol]
in CC(C)CC(C)(C)C	-4.53
in CCCCCCCC	-4.72
in CCCCCCCCCC	-4.67
in O	-3.88

CCCCCCCCCC(C)=O
Conditions	solvation free energy, 298 K [kcal/mol]
in O	-2.15

CN(C)C(=O)Nc1ccc(Cl)cc1
Conditions	solvation free energy, 298 K [kcal/mol]
in C1CCOC1	-13.7
in CC(C)CC(C)(C)C	-9.58
in CC(C)CCO	-13.1
in CC(C)CO	-13.1
in CC(C)O	-13.1
in CCC(C)O	-13.1
in CCCC(C)O	-13
in CCCCC(CC)CO	-12.8
in CCCCCC	-9.81
in CCCCCCC	-9.75
in CCCCCCCC	-9.79
in CCCCCCCCCC	-9.8
in CCCCCCCCCCO	-12.8
in CCCCCCCO	-13
in CCCCCCO	-13.2
in CCCCCO	-13.2
in CCCCO	-13.3
in CCCCOC(C)=O	-12.8
in CCCCOCCCC	-11.6
in CCCO	-13.3
in CCO	-13.4
in CCOC(C)=O	-13.1
in CO	-13.7
in COC(C)=O	-13.1
in ClC(Cl)(Cl)Cl	-11.1
in ClC(Cl)Cl	-13.3
in ClCCCl	-13
in ClCCl	-13.3
in O	-10.4

C#CCCCCCCC
Conditions	solvation free energy, 298 K [kcal/mol]
in O	0.74

O=C(O)CCCCCC(=O)O
Conditions	solvation free energy, 298 K [kcal/mol]
in CCO	-14.2
in CCOCC	-12.8

O=c1cc(-c2ccc(O)c(O)c2)oc2cc(O)cc(O)c12
Conditions	solvation free energy, 298 K [kcal/mol]
in CC(C)O	-25.4
in CCCCO	-25.2
in CCCO	-25.5
in CCO	-25.5

C=C(C)C1CC=C(C)C(OC=O)C1 (stereo not drawn)
Conditions	solvation free energy, 298 K [kcal/mol]
in O	-3.82

CCCCCCC(C)O (stereo not drawn)
Conditions	solvation free energy, 298 K [kcal/mol]
in CCCCCCC	-5.86
in O	-3.77

CC(C)Cc1ccc(C(C)C(=O)O)cc1 (stereo not drawn)
Conditions	solvation free energy, 298 K [kcal/mol]
in CC(C)CO	-13.2
in CC(C)O	-13.4
in CCC(C)O	-13.2
in CCCCCCCCCCO	-13
in CCCCCCCO	-13.1
in CCCCCCO	-13.2
in CCCCCO	-13.1
in CCCCO	-13.1
in CCCO	-13.2
in CCO	-13.1
in CN(C)C=O	-13.1
in CO	-13.1
in Clc1ccccc1	-11.9
in NC=O	-10.9
in O	-7

CCCCC(O)CC (stereo not drawn)
Conditions	solvation free energy, 298 K [kcal/mol]
in O	-3.94

CN1C(=O)C(O)N=C(c2ccccc2)c2cc(Cl)ccc21 (stereo not drawn)
Conditions	solvation free energy, 298 K [kcal/mol]
in CC(C)O	-18.1
in CCCCCCO	-18.6
in CCCCCO	-18.5
in CCCCO	-18.5
in CCCO	-18.5
in CCO	-18.6
in CN(C)C=O	-20
in CO	-19.1
in O	-15.2
in O=C1CCCCC1	-19.6

Cc1ccccc1C(=O)N(O)c1ccccc1C
Conditions	solvation free energy, 298 K [kcal/mol]
in O	-11.2
